The values that follow come from patent US20230047816A1 (priority 2018, published 2023).

Broadly, the IC50 is the point on the concentration scale where inhibition reaches its midpoint.

The target in this experiment is Recombinant full length human PFKFB3 (Homo sapiens, UniProt Q16875). Nature of the experiment: PFKFB3 kinase activity assay (ADP production, ADP-Glo). In general terms: In ADP-Glo the light output rises with the ADP produced.
Chain of Recombinant full length human PFKFB3 (Q16875 whole entry): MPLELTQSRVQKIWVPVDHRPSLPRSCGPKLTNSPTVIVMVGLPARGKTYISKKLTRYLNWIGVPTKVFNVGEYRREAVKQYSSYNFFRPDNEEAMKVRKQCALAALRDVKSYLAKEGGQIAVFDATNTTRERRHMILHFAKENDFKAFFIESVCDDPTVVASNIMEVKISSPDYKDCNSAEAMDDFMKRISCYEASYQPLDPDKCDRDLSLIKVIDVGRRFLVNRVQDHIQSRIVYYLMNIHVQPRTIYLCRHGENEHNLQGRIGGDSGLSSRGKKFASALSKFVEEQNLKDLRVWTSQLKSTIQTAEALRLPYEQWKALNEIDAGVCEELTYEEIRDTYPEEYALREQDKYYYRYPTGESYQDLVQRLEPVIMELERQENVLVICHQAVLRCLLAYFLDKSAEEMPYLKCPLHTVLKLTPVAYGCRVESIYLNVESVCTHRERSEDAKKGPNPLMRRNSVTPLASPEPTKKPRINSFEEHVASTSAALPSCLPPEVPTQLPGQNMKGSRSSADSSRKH
Description: Recombinant full length human PFKFB3 (or PFKFB4) protein purified from Sf9 baculoviral system was acquired from SignalChem (Cat. #P323-30G or P324-30G). ATP, Fructose-6-Phosphate and other chemicals were from Sigma-Aldrich. The kinase activity of the PFKFB3 (PFKFB4) protein was detected by measuring production of ADP from ATP in the presence of the Fructose-6-Phosphate substrate. The kinase reactions were assembled in 384 well plates in a total volume of 25 μL. Test compounds were serially diluted in DMSO. Reactions were set up by first mixing test compounds with enzyme and pre-incubating for 15 min. The ATP and Fructose-6-Phosphate substrates were next added to initiate the kinase reactions.
The compounds of invention listed below in this example were tested at various concentrations (which also added 1% DMSO from compounds, to the final solution) as described below. The kinase reactions were allowed to proceed for 1 h at room temperature. Aliquots of the reaction mixtures (5 μL) were transferred to fresh white 384 well plates and mixed with 5 μL of the ADP-Glo reagent (Promega), followed by incubation for 30 min. The luminescent Kinase Detection reagent was added (10 μL) and, following additional incubation for 15 min, the plates were read on luminescence plate reader (Analyst HT). Positive (100%-inhibition) and negative (0%-inhibition) control samples were assembled in each assay plate and were used to calculate percent inhibition values of test compounds. All experiments were performed in duplicate.
On to `O=C(O)c1cc(C(=O)O)c(C(=O)Nc2cc(N3CC4CCC3C4)ccc2C(=O)O)cc1O` (stereo not shown) [Example 58, 4-[(5-{2-azabicyclo[2.2.1]heptan-2-yl}-2-carboxyphenyl)carbamoyl]-6-hydroxybenzene-1,3-dicarboxylic acid], for which the half-inhibitory concentration (IC50) is under 0.5 µM.

`CCCCS(=O)(=O)NC(=O)c1ccc2c(c1)C(=O)N(c1sc(C)c(-c3ccc(OC)cc3)c1C#N)C2=O` [Example 15]: the half-maximal inhibitory concentration (IC50) is 5 to 20 µM. For `O=C(O)c1ccc(-c2ccc(F)c(F)c2)cc1N1Cc2ccc(CO)cc2C1=O` [compound 158, 3′,4′-difluoro-3-(6-(hydroxymethyl)-1-oxoisoindolin-2-yl)biphenyl-4-carboxylic acid], the concentration for half-maximal inhibition (IC50) fell in the range of 5 to 20 µM. Consider `CN(C)C(=O)c1cc(C(=O)O)c(O)cc1C(=O)Nc1cc(-c2ccc(Cl)cc2Cl)ccc1C(=O)O` [Example 32, 3-(4-carboxy-2-(dimethylcarbamoyl)-5-hydroxybenzamido)-2′,4′-dichloro-[1,1′-biphenyl]-4-carboxylic acid], for which the IC50 lay within 0.5 to 2 µM. With `COC(=O)c1cc(-c2ccccc2)c(OC)cc1N1C(=O)c2ccc(-c3c[nH]nn3)cc2C1=O` [Example 38] the figure was 5 to 20 µM; with `O=C(O)c1ccc(C(=O)Nc2cc(-c3ccccc3)ccc2C(=O)O)c(C(=O)O)c1` [Example 5, 4-({4-carboxy-[1,1′-biphenyl]-3-yl}carbamoyl)benzene-1,3-dicarboxylic acid], 0.5 to 2 µM; with `CS(=O)(=O)NC(=O)c1ccc2c(c1)C(=O)N(c1cc(-c3ccc(F)c(F)c3)ccc1C(=O)O)C2` [Compound 106, 3′,4′-Difluoro-3-(6-methanesulfonylaminocarbonyl-1-oxo-1,3-dihydroisoindol-2-yl)biphenyl-4-carboxylic Acid], 2 to 5 µM. As for `O=C(O)c1ccc(C(=O)O)c(C(=O)Nc2cc(-c3ccc(F)cc3)ccc2C(=O)O)c1` [Example 1, 2-({4-carboxy-4′-fluoro-[1,1′-biphenyl]-3-yl}carbamoyl)benzene-1,4-dicarboxylic acid], the half-maximal inhibitory concentration (IC50) was 0.5 to 2 µM. `CC(C)(C)OC(=O)c1ccc(-c2ccc(F)c(F)c2)cc1N1Cc2ccc(-c3c[nH]nn3)cc2C1=O` [Compound 117, 3′,4′-Difluoro-3-[1-oxo-6-(1H-[1,2,3]triazol-4-yl)-1,3-dihydro-isoindol-2-yl]-biphenyl-4-carboxylic acid tert-butyl ester]: the IC50 is under 20 µM. As to `O=C(O)c1ccc(-c2ccc(F)c(F)c2)cc1N1Cc2ccc(-c3nnn[nH]3)cc2C1=O` [Compound 100, 3′,4′-Difluoro-3-[1-oxo-6-(1H-tetrazol-5-yl)-1,3-dihydroisoindol-2-yl]biphenyl-4-carboxylic Acid], the half-inhibitory concentration (IC50) was 0.5 to 2 µM. In the case of `O=C(O)c1cc2c(cc1Br)C(=O)N(c1cc(-c3ccc(F)c(F)c3)ccc1C(=O)O)C2=O` [compound 169, 6-bromo-2-(4-carboxy-3′,4′-difluoro[1,1′-biphenyl]-3-yl)-1,3-dioxo-2,3-dihydro-1H-isoindole-5-carboxylic acid], the IC50 is under 0.5 µM. `COc1ccc(-c2c(C)sc(N3C(=O)c4ccc(C(=O)N[C@H](C(=O)O)C(C)C)cc4C3=O)c2C#N)cc1` [Example 19]: the IC50 lay in the range of 5 to 20 µM. In the case of `O=C(O)c1ccc(-c2ccc(F)c(F)c2)cc1N1Cc2ccc(-c3nn[nH]c3-c3ccccc3)cc2C1=O` [compound 163, 3′,4′-difluoro-3-(1-oxo-6-(5-phenyl-1H-1,2,3-triazol-4-yl)isoindolin-2-yl)biphenyl-4-carboxylic acid] it was 0.5 to 2 µM. In the case of `CN(C)CCOC(=O)c1ccc(-c2ccc(F)c(F)c2)cc1N1Cc2ccc(C(=O)O)cc2C1=O` [Compound 120, 2-[4-(2-Dimethylamino-ethoxycarbonyl)-3′,4′-difluorobiphenyl-3-yl]-3-oxo-2,3-dihydro-1H-isoindole-5-carboxylic Acid] it was 5 to 20 µM; in that of `CCCCOC(=O)c1ccc2c(c1)C(=O)N(c1cc(-c3ccc(F)c(F)c3)ccc1C(N)=O)C2` [Compound 123, 2-(4-Carbamoyl-3′,4′-difluorobiphenyl-3-yl)-3-oxo-2,3-dihydro-1H-isoindole-5-carboxylic acid butyl ester], under 20 µM; in that of `O=C(OCC(O)CO)c1ccc(-c2ccccc2)cc1N1C(=O)c2ccc(-c3c[nH]nn3)cc2C1=O` (stereo not shown) [Compound 70, 3-[1,3-Dioxo-5-(1H-[1,2,3]triazol-4-yl)-1,3-dihydroisoindol-2-yl]biphenyl-4-carboxylic acid 2,3-dihydroxy-propyl ester], 5 to 20 µM.

Consider `Cc1cc(-c2ccccc2)cc(N2C(=O)c3ccc(-c4c[nH]nn4)cc3C2=O)n1` [Compound 88, 2-(6-Methyl-4-phenylpyridin-2-yl)-5-(1H-[1,2,3]triazol-4-yl)-isoindole-1,3-dione], for which the IC50 was 5 to 20 µM.

Consider `O=C1c2ccc(-c3c[nH]nn3)cc2C(=O)N1c1cc(-c2ccc(F)cc2)ccn1` [Compound 87, 2-[4-(4-Fluorophenyl)-pyridin-2-yl]-5-(1H-[1,2,3]triazol-4-yl)-isoindole-1,3-dione], for which the IC50 was in the range of 5 to 20 µM. With `CC(CN(C)C)OC(=O)c1ccc(-c2ccc(Cl)cc2Cl)cc1NC(=O)c1cc(O)c(C(=O)O)cc1C(=O)O` (stereo not shown) [Example 65, 4-{[2′,4′-dichloro-4-({[1-(dimethylamino)propan-2-yl]oxy}carbonyl)-[1,1′-biphenyl]-3-yl]carbamoyl}-6-hydroxybenzene-1,3-dicarboxylic acid] the figure was under 0.5 µM; with `COc1ccc(-c2c(C)sc(NC(=O)c3ccc(C(=O)O)cc3C(=O)O)c2C#N)cc1` [Example 30, 4-{[3-cyano-4-(4-methoxyphenyl)-5-methylthiophen-2-yl]carbamoyl}benzene-1,3-dicarboxylic acid], under 0.5 µM.

With `O=C(OCCN1CCCC1)c1cc(-c2ccccc2)ccc1N1C(=O)c2ccc(-c3c[nH]nn3)cc2C1=O` [Compound 79, 4-[1,3-Dioxo-5-(1H-[1,2,3]triazol-4-yl)-1,3-dihydroisoindol-2-yl]biphenyl-3-carboxylic acid 2-pyrrolidin-1-yl-ethyl ester], the 50% inhibitory concentration (IC50) was in the range of 5 to 20 µM. For `CCCCOC(=O)c1ccc2c(c1)C(=O)N(c1cc(-c3ccc(F)c(F)c3)ccc1C(=O)O)C2` [Compound 128, 2-(4-Carboxy-3′,4′-difluoro-biphenyl-3-yl)-3-oxo-2,3-dihydro-1H-isoindole-5-carboxylic acid butyl ester], the IC50 was in the range of 5 to 20 µM.

Regarding `COc1ccc(-c2nnn[nH]2)c(N2C(=O)c3ccc(-c4c[nH]nn4)cc3C2=O)c1` [compound 154, 2-(2-(1H-tetrazol-5-yl)-5-methoxyphenyl)-5-(1H-1,2,3-triazol-4-yl)isoindoline-1,3-dione], the IC50 was 5 to 20 µM. Turning to `NS(=O)(=O)c1ccc(-c2ccccc2)cc1N1C(=O)c2ccc(-c3c[nH]nn3)cc2C1=O` [compound 148, 3-(1,3-dioxo-5-(1H-1,2,3-triazol-4-yl)isoindolin-2-yl)biphenyl-4-sulfonamide], the IC50 was under 20 µM.

Take `CNCCOC(=O)c1cc(-c2c[nH]cn2)ccc1N1C(=O)c2ccc(C(=O)O)cc2C1=O` [Compound 77, 2-[4-(1H-Imidazol-4-yl)-2-(2-methylaminoethoxycarbonyl)-phenyl]-1,3-dioxo-2,3-dihydro-1H-isoindole-5-carboxylic Acid]: the concentration for half-maximal inhibition (IC50) lay within 0.5 to 2 µM.
